Experimental data: US20240293579A1, “Composition Comprising Trim31 and Rhbdf2 for Treatment of NAFLD/NASH” (CHONGQING MEIPULAN TECHNOLOGY CO., LTD, priority 2021, published 2024)

tested on: TRIM31 mRNA; test: TRIM31 mRNA expression by RT-qPCR in PA/OA-induced L02 cells; format: cell-based, human; details: 100 μmol/L compound; PA/OA-induced L02 cells; RT-qPCR
Method: Palmitic acid/oleic acid (PA/OA) was used to induce the decrease of TRIM31 mRNA expression in human hepatocyte L02 cells. The cells were divided into control group and drug group. The drug group was treated with a concentration of 100 μmol/L compound, and the expression level of TRIM31 mRNA was detected by RT-qPCR. The expression level of TRIM31 mRNA in the drug group divided by that in the control group (Qdrug/Qctrl) was used to evaluate the ability of the compounds to promote TRIM31 expression. […]

Row | Compound | Qdrug/Qctrl (TRIM31 mRNA expression level, drug group divided by control group)
1 | Oc1cc(O)c2c(c1)O[C@H](c1cc(O)c(O)c(O)c1)[C@H](O)C2 [(−)-epigallocatechin] | 2.71 fold
2 | Cynarascoloside C | 2.34 fold
3 | Proanthocyanidin | 3.12 fold
4 | O=c1cc(-c2ccc(O)c(O)c2)oc2cc(O[C@@H]3O[C@H](CO)[C@@H](O)[C@H](O)[C@H]3O)cc(O)c12 [luteolin 7-O-β-D-glucoside] | 2.83 fold
5 | Catechin | 3.21 fold
6 | Punicosides | 2.64 fold
7 | Anthocyanidin | 3.68 fold
8 | C[C@H](CCC(=O)NCCS(=O)(=O)O)[C@H]1CC[C@H]2[C@@H]3[C@H](O)C[C@@H]4C[C@H](O)CC[C@]4(C)[C@H]3CC[C@]12C [Taurochenodeoxycholic acid] | 2.51 fold
9 | COC(=O)C1=CO[C@@H](C)[C@H]2Cn3ccc4c5ccccc5nc-4c3C[C@H]12 [Serpentine] | 1.33 fold
10 | Orixine | 1.69 fold
11 | CC1(C)[C@@H](O[C@H]2O[C@H](C(=O)O)[C@@H](O)[C@H](O)[C@H]2O[C@@H]2O[C@H](C(=O)O)[C@@H](O)[C@H](O)[C@H]2O)CC[C@]2(C)[C@H]3C(=O)C=C4[C@@H]5C[C@@](C)(C(=O)O)CC[C@]5(C)CC[C@@]4(C)[C@]3(C)CC[C@@H]12 [Glycyrrhizinic acid] | 1.86 fold
12 | CC(C)=CCc1c(-c2ccc(O)cc2O)oc2c(CC=C(C)C)c(O)cc(O)c2c1=O [Mulberrin] | 3.74 fold
13 | O=C1CCC[C@@H]2[C@H]3CCCN4CCC[C@@H](CN12)[C@@H]34 [Sophocarpidine] | 1.30 fold
14 | Oc1ccc([C@H]2Oc3cc(O)cc(O)c3C[C@@H]2O)cc1 [Afzelechin] | 3.12 fold

same assay, conditions: Homo sapiens, L02, read-out: Qdrug/Qctrl (TRIM31 mRNA expression level, drug group divided by control group)

Row | Compound | fold induction at 100 µM
15 | C=C(CO)C(=O)O[C@H]1CC(=C)[C@@H]2C[C@H](O)C(=C)[C@@H]2[C@H]2OC(=O)C(=C)[C@@H]21 [Cynaropicrin] | 3.35
16 | COc1cc(/C=C/C(=O)O)ccc1O [Ferulic acid] | 2.51
17 | O=c1c(O)c(-c2cc(O)c(O)c(O)c2)oc2cc(O)cc(O)c12 [Myricetin] | 3.25
18 | COc1cc2c(c(OC)c1OC)-c1ccc(OC)c(=O)cc1[C@@H](NC(C)=O)CC2 [Colchicine, reference compound] | 1.32
19 | O=C1c2c(O)cc(O)cc2O[C@H](c2ccc(O)c(O)c2)[C@H]1O [Dihydroquercetin] | 3.32
20 | CN(C)C(=N)N=C(N)N [Metformin, reference compound] | 2.45
21 | COc1cc2c(cc1OC)[C@@H]1Cc3ccc(OC)c(OC)c3CN1CC2 [Tetrahydropalmatine] | 1.76
22 | Oc1cc(O)c2cc(O)c(-c3ccc(O)c(O)c3)[o+]c2c1 [Cyanidin] | 2.97
23 | O=c1c(-c2ccc(O)cc2)coc2cc(O)ccc12 [Daidzein] | 2.66
24 | O=c1cc(-c2ccccc2)oc2cc(O)c(O)c(O)c12 [Baicalein] | 3.53
25 | CC(C)(S)[C@@H](N)C(=O)O [Penicillamine, reference compound] | 1.72
26 | CN1Cc2c(ccc3c2OCO3)[C@@H]2[C@H]1c1cc3c(cc1C[C@@H]2O)OCO3 [Chelidonine] | 1.53
27 | O=C(/C=C/c1ccc(O)c(O)c1)O[C@@H]1C[C@](O)(C(=O)O)C[C@@H](O)[C@H]1O [Chlorogenic acid] | 2.42
28 | Oc1cc(O)c2c(c1)O[C@H](c1ccc(O)c(O)c1)[C@H](O)C2 [Epicatechin] | 2.92
29 | O=C1C[C@@H](c2ccc(O)cc2)Oc2cc(O)cc(O)c21 [Naringenin] | 3.02
30 | Oc1ccc(C=Cc2cc(O)cc(O)c2)cc1 [Resveratrol] | 3.66
31 | O=C1CCC(N2C(=O)c3ccccc3C2=O)C(=O)N1 (stereo not shown) [Thalidomide, reference compound] | 1.88
32 | O=c1c(O)c(-c2ccc(O)cc2)oc2cc(O)cc(O)c12 [Kaempferol] | 3.26
33 | COc1cc2nccc(Oc3ccc(NC(=O)NC4CC4)c(Cl)c3)c2cc1C(N)=O [Lenvatinib, reference compound] | 2.75
34 | O=c1cc(-c2ccccc2)oc2cc(O)cc(O)c12 [Chrysin] | 2.89
35 | COc1ccc([C@@H]2CC(=O)c3c(O)cc(O)cc3O2)cc1O [Hesperetin] | 3.06
36 | COc1cc(C(=O)OCCCCNC(=N)N)cc(OC)c1O [Leonurine] | 1.51
37 | COc1cc(-c2cc(=O)c3c(O)cc(O)cc3o2)cc(OC)c1O [Tricin] | 2.9
38 | CC[C@H]1CN2CC[C@]3(C(=O)Nc4ccccc43)[C@@H]2C[C@@H]1/C(=C\OC)C(=O)OC [Rhynchophylline] | 1.92
39 | COc1cc(-c2oc3cc(O)cc(O)c3c(=O)c2O)ccc1O [Isorhamnetin] | 2.77

same assay, conditions: Homo sapiens; 100 μmol/L compound; PA/OA-induced L02 cells; RT-qPCR; read-out: Qdrug/Qctrl (TRIM31 mRNA expression level, drug group divided by control group)

Row | Compound | fold induction at 100 µM
40 | O=C(O)[C@H]1O[C@@H](Oc2cc3oc(-c4ccccc4)cc(=O)c3c(O)c2O)[C@H](O)[C@@H](O)[C@@H]1O [Baicalin] | 2.98
41 | C[C@@H]1O[C@@H](OC[C@H]2O[C@@H](Oc3c(-c4ccc(O)c(O)c4)oc4cc(O)cc(O)c4c3=O)[C@H](O)[C@@H](O)[C@@H]2O)[C@H](O)[C@H](O)[C@H]1O [Rutin] | 2.86
42 | O=c1cc(-c2ccc(O)c(O)c2)oc2cc(O)cc(O)c12 [Luteolin] | 3.09
43 | COc1ccc2cc1Oc1ccc(cc1)C[C@H]1c3cc(c(OC)cc3CCN1C)Oc1c(OC)c(OC)cc3c1[C@H](C2)N(C)CC3 [Tetrandrine] | 1.56
44 | O=c1c(-c2ccc(O)cc2)coc2cc(O)cc(O)c12 [Genistein] | 2.73
45 | Oc1cc(O)c2cc(O)c(-c3cc(O)c(O)c(O)c3)[o+]c2c1 [Delphinidin] | 2.49
46 | C[C@H](CCC(=O)NCCS(=O)(=O)O)[C@H]1CC[C@H]2[C@@H]3[C@@H](O)C[C@@H]4C[C@H](O)CC[C@]4(C)[C@H]3CC[C@]12C [Tauroursodeoxycholic acid, reference compound] | 2.77
47 | CC[C@@]1(O)C(=O)OCc2c1cc1n(c2=O)Cc2cc3ccccc3nc2-1 [Camptothecin] | 2.13
48 | O[C@H]1[C@H]2c3cc4c(cc3CN3CCC(=C[C@@H]1O)[C@H]23)OCO4 [Lycorine] | 2.26
49 | COc1ccc2c(c1O)-c1c(O)c(OC)cc3c1[C@H](C2)[N+](C)(C)CC3 [Magnoflorine] | 1.38
50 | COc1cc(C2Oc3cc([C@H]4Oc5cc(O)cc(O)c5C(=O)[C@@H]4O)ccc3OC2CO)ccc1O (stereo partly shown) [Silibinin] | 3.12
51 | CNC(=O)c1cc(Oc2ccc(NC(=O)Nc3ccc(Cl)c(C(F)(F)F)c3)c(F)c2)ccn1 [Regorafenib, reference compound] | 2.79
52 | O=C1CCC[C@@H]2[C@H]3CCC[N+]4([O-])CCC[C@@H](CN12)[C@@H]34 (stereo partly shown) [Oxymatrine] | 1.15
53 | COC(=O)c1cc(OC)c2c(c1-c1c(CO)cc(OC)c3c1OCO3)OCO2 [Bicyclol, reference compound] | 2.45
54 | C[S+](CC[C@H](N)C(=O)[O-])C[C@H]1O[C@@H](n2cnc3c(N)ncnc32)[C@H](O)[C@@H]1O (stereo partly shown) [Ademetionine, reference compound] | 2.55
55 | O=c1c(O)c(-c2ccc(O)c(O)c2)oc2cc(O)cc(O)c12 [Quercetin] | 3.38
56 | COc1cc2c(c3c1c(=O)c1ccccc1n3C)C=CC(C)(C)O2 [Acronycine] | 1.43
57 | O=c1cc(-c2ccc(O)cc2)oc2cc(O[C@@H]3O[C@H](CO)[C@@H](O)[C@H](O)[C@H]3O[C@@H]3OC[C@](O)(CO)[C@H]3O)cc(O)c12 [Apiin] | 3.22
58 | C[C@H](CCC(=O)O)[C@H]1CC[C@H]2[C@@H]3[C@H](O)C[C@@H]4C[C@H](O)CC[C@]4(C)[C@H]3CC[C@]12C [Chenodeoxycholic acid, reference compound] | 2.54
59 | CNC(=O)c1cc(Oc2ccc(NC(=O)Nc3ccc(Cl)c(C(F)(F)F)c3)cc2)ccn1 [Sorafenib, reference compound] | 2.86
60 | O=C(/C=C/c1ccc(O)c(O)c1)O[C@@H]1C[C@@](OC(=O)/C=C/c2ccc(O)c(O)c2)(C(=O)O)C[C@@H](O)[C@@H]1O [Cynarin] | 2.56
61 | O=c1c(O)c(-c2ccc(O)cc2O)oc2cc(O)cc(O)c12 [Morin] | 2.86
62 | O=c1c(O[C@@H]2O[C@@H](CO)[C@H](O)[C@H]2O)c(-c2ccc(O)cc2)oc2cc(O)cc(O)c12 [Juglanin] | 2.95
63 | O=c1c(-c2ccc(O)cc2)coc2c([C@@H]3O[C@H](CO)[C@@H](O)[C@H](O)[C@H]3O)c(O)ccc12 [Puerarin] | 2.72
64 | Oc1ccc(-c2[o+]c3cc(O)cc(O)c3cc2O)cc1 [Pelargonidin] | 2.78
65 | Nc1cccc2c1C(=O)N(C1CCC(=O)NC1=O)C2=O (stereo not shown) [Pomalidomide, reference compound] | 1.49
66 | COc1ccc(-c2oc3c(CC=C(C)C)c(O[C@@H]4O[C@H](CO)[C@@H](O)[C@H](O)[C@H]4O)cc(O)c3c(=O)c2O[C@@H]2O[C@@H](C)[C@H](O)[C@@H](O)[C@H]2O)cc1 [Icariin] | 3.33
67 | Nc1cccc2c1CN(C1CCC(=O)NC1=O)C2=O (stereo not shown) [Lenalidomide, reference compound] | 1.43
